Reference: patent US11896032B2, “Agent for improving feed conversion rate, agent for improving survival rate, agent for improving the number of eggs laid by egg-laying hen, and method of giving same to animals, and feed” (Tsubakisangyo Co., Ltd., priority 2016, dated 2024)
Where “and” joins values, the source holds several entries; their conditions need not be identical. Identical values can stand only once.

What was measured:
egg-laying hens [1] = experiment: Second test: feed with powdery acetylcysteine added given to egg-laying hens; type: in vivo, chicken (Julia Light); settings: for egg production rate: 28 days, 42- to 46-week old hens
Description: The second test was performed by giving a feed, to which powdery acetylcysteine was added, to egg-laying hens.
120 individuals having an egg production rate of 82% or more 4 weeks before the start of the preparative raising were selected from Julia Light birds (281-day old when partitioned) which were being raised in the scientific feed research center of Japan Scientific Feeds Association to be fed.
Three zones were set: a control zone where a basic feed not having acetylcysteine added thereto was given, a first test zone (standard zone) where a feed comprising a basic feed to which 0.0014% acetylcysteine was added was given, and a second test zone (5-fold zone) where a feed comprising a basic feed to which 0.0072% acetylcysteine was added was given.
Four groups were assigned to each zone, and the basic feed was given for 14 days to accustom the tested hens to the test environment. After that, the feed corresponding to each zone was given for 4 weeks.
Also in the second test, a standard daily intake of acetylcysteine per bird is planned to be 1 mg per weight (Kg) of a tested hen. In the main test, from the weight at the start of preparative raising and the feed intake one week after the start of preparative raising, assuming that the weight of a tested hen was 1580 g and a daily feed intake per bird was 140 g, the amount of acetylcysteine to be added to the basic feed was set from the following expression: standard zone: amount (%) of acetylcysteine to be added to the basic feed=weight (1580 g)×acetylcysteine intake (1 mg/weight (Kg))/feed intake (114 g/day/bird)×100 5-fold zone: amount (%) of acetylcysteine to be added to the basic feed=weight (1580 g)×acetylcysteine intake (5 mg/weight (Kg))/feed intake (114 g/day/bird)×100 <Management of Raising>
The tested hens were individually managed in a terraced individual cage for egg-laying hens disposed in an open chicken house. A set of 10 continuous cages was used for each group, and a single empty cage was disposed between the zones. The feed and drinking water were continuously given. The light beams were controlled such that the bright period was 14 hours and the dark period was 10 hours.
A variation in weight, the average egg weight, the daily egg production amount, the feed intake, and the feed efficiency were subjected to analysis of variance by a method of one-way analysis of variance using the given feed as a factor, and the superiority in each interval was examined. The egg production rate was subjected to arcsine transformation, and the superiority of the difference between intervals was similarly examined. The culling hens were excluded from the average back to the start of the test, and the results of egg production and the like were summarized. The egg production rate during the test period was subjected to rejection test, and the individuals whose egg production rate was determined as abnormal were also excluded from the average back to the start of the test.
The scientific feed research center of Japan Scientific Feeds Association (821 Yoshikura, Naritashi, Chiba)
The test was performed for 42 days from September 21 to November 2, Heisei 28. The 14 days from September 21 to October 5, Heisei 28 was the preparative test period, and the 28 days from October 6 to November 2, Heisei 28 was the main test period.

[2] = system: chickens for meat (broilers); experiment: Third test: feed with powdery acetylcysteine added given to chickens for meat (broilers); type: in vivo, chicken (Chunky broiler)
Description: A third test was performed by giving chickens for meat (broilers) a feed having powdery acetylcysteine added thereto.
300 (150 males and 150 females) broiler-dedicated breed day-old chicks (broilers available from Nippon Chunky Co., Ltd.) are fed. As the chicks, about 350 birds (175 males and 175 females) were introduced, and individuals not having any abnormal health condition and having a close weight were selected and used in the test.
The nutritional value of this basic feed is adjusted so as to be lower than the index.
The concentration of acetylcysteine added to the basic feed was determined based on the aimed results for Chunky broiler (2014).
Three groups were assigned to the control zone and the test zone, respectively, and the chicks were raised until 49-day old.
Each flock of tested chicks was raised in an electrically heated windowless chicken house of a forced ventilation (air exhaust) type.
For vaccination, chicks vaccinated with Marek's vaccine and live fowl pox vaccine when born were introduced, and were additionally vaccinated with NB live vaccine at 4-day old and 15-day old and with live fowl pox vaccine at 21-day old.
The feed and drinking water were continuously given.

egg-laying hens [3] = experiment: First test: aqueous solution of acetylcysteine given to egg-laying hens as drinking water; type: in vivo, chicken (Julia Light in test zone, Julia in control zone)
Description: The first test was performed by giving an aqueous solution of acetylcysteine to egg-laying hens as drinking water.
Adult egg-laying hens were selected as the target animal for the test because data is readily collected. The point of time when the test was started was at off-peak times in egg laying.
Two breeds Julia and Julia Light were used.
For this reason, in the main test, Julia having a low feed conversion rate (high profitability) was raised in the control zone and Julia Light having a high feed conversion rate (low profitability) was raised in the test zone.
The number of hens in the test zone was 33412 Julia Light hens and that in the control zone was also 33412 Julia hens.
The test zone and the control zone were placed in Akagiyama Farm run by Takai Poultry Farm Y.K., where chickens are actually raised, to perform the test in an actual situation.
A windowless house was used because differences between individuals and differences in heath conditions are small.
The house was provided with a cage having a width of 380 mm, a length of 500 mm, and a height of 380 mm.
To avoid application of heat stress to the target chickens for the test, the test was performed for 166 days from October 21, Heisei 27 to April 3, Heisei 28. At a temperature inside the house of more than 27° C., the feed demand (feed intake) of the chickens will reduce due to heat stress.
A Kumiai Blend Feed “Akagikougen 17 Up for adult chicken” shown in FIG. 1 was given from October 21, Heisei 27 to February 13, Heisei 28, and a Kumiai Blend Feed “Akagikougen 16 Up for adult chicken” shown in FIG. 2 was given from February 23 to April 3, Heisei 28.
As the agent for improving a feed conversion rate, the agent for improving a survival rate, or the agent for improving the number of eggs laid by an egg-laying hen, an aqueous solution of acetylcysteine was given to Julia Light in the test zone as drinking water through the nipples disposed at both ends of the ceiling of the cage.
The concentration of acetylcysteine in drinking water was prepared such that 1 mg/day/Kg acetylcysteine was given to the egg-laying hens. Specifically, 3.3 L per day of a stock solution having an acetylcysteine concentration of 10% was used for 33412 Julia Light hens having a weight of about 2 Kg.
The frequency to give the agent for improving a feed conversion rate, the agent for improving a survival rate, or the agent for improving the number of eggs laid by an egg-laying hen was one time for 5 days.
Water not containing agent for improving a feed conversion rate, the agent for improving a survival rate, or the agent for improving the number of eggs laid by an egg-laying hen was given to Julia in the control zone through the nipple.
The lower columns in FIG. 3 show the difference in the number of deaths, the difference in the number of eggs laid, the average feed demand, the average egg production rate, and the average egg weight between the target chickens for the test and the control during the test period.
A smaller number of deaths and cullings of the target chickens for the test are preferred. A larger number of eggs laid are preferred. A smaller feed demand (feed intake) is preferred although it should be balanced with the egg production rate and the egg weight. A larger egg production rate is preferred. A larger egg weight and a larger average egg weight are preferred. The feed conversion rate of the target egg-laying hen for the test is calculated as a ratio of the total weight of eggs laid to the feed demand as described above. The feed demand is calculated as a product of the feed intake, the number of birds, and the survival rate. The total weight of eggs laid is calculated as a product of the number of birds, the egg production rate, and the average egg weight.
The feed conversion rate of the target egg-laying hen for the test is represented by a ratio of the amount of feed given to the total weight of eggs laid as described above. […]

chickens for meat = settings: 1% glycine in feed; cited from earlier work
[4] = 1 mg/day/Kg in drinking water, 166 days

With `CC(=O)N[C@@H](CS)C(=O)O` [acetylcysteine, N-acetyl-L-cysteine] the “weight at the end of the test relative to control zone” value (egg-laying hens [1]; 5-fold zone, 0.0072% acetylcysteine in feed, 4 weeks) was “approximately equal”, the egg production rate (egg-laying hens [1]; 5-fold zone, 0.0072% in feed) was 98.6% and the “feed conversion rate, higher than that in the control zone” value (egg-laying hens [1]; feed contained 0.2% DL-methionine, zone not specified) was 4.43%. The “weight at the end of the test, larger than that in the control zone” value (egg-laying hens [1]; standard zone, 0.0014% acetylcysteine in feed, 4 weeks) was 0.5%, the egg production rate (egg-laying hens [1]; standard zone, 0.0014% in feed) was 99.2% and the “feed conversion rate in the test zone relative to that in the control zone” value ([2]; 1 mg/Kg daily in feed, until 49-day old) was 100.55%. For the same compound, the “feed efficiency in the test zone relative to that in the control zone” value ([2]; Weeks 4 to 7 of the second period) was 101.54%, the “number of deaths and cullings” value ([2]; test zone, control zone 3 birds, Week 6 (sudden death syndrome)) was 1 bird and the growth rate ([2]; test zone, control zone 98%) was 99.3%. The “feed efficiency in the test zone relative to that in the control zone” value ([2]; three weeks of the first period) was 99.32%, the “feed efficiency in the test zone relative to that in the control zone” value ([2]; whole period, until 49-day old) was 100.93% and the “decrease of average egg weight in test zone compared to control zone” value (egg-laying hens [3]; [4]) was 2.16%. The “increase of average egg production rate in test zone compared to control zone” value (egg-laying hens [3]; [4]) was 1.13%, the “increase of number of eggs laid in test zone compared to control zone” value (egg-laying hens [3]; [4]) was 1.67% and the “proportion of the feed conversion rate in the test zone to that in the control zone” value (egg-laying hens [3]; [4]) was 96.50% and 96.48%. The “reduction (improvement) of feed conversion rate in test zone compared to control zone” value (egg-laying hens [3]; [4]) was 3.52%, the “reduction of number of deaths and cullings in test zone compared to control zone” value (egg-laying hens [3]; [4]) was 20% and the “feed conversion rate in the test zone” value (egg-laying hens [3]; 1 mg/day/Kg in drinking water, given one time for 5 days, 166 days, control zone 1.99) was 1.92. For the same compound, the “reduction of feed demand” value (egg-laying hens [3]; as shown in FIG. 3, test zone vs control zone) was 4.67%, the “improvement of feed conversion rate in test zone vs control zone in consideration of the preparative test” value (egg-laying hens [3]; corrected for 1.59% increase in 20-day preparative test without agent) was 5.11% and the “surface roughness of egg shells, visual observation, vs eggs of control zone” value (egg-laying hens [3]; eggs collected in the test zone) was “finer and smoother surfaces”. For the same compound, the “improvement in feed conversion rate in the test of the old hens in the chicken farm” value (egg-laying hens [3]; old hens, chicken farm) was “more than 5%” and the “calcium in solid products of feces washed with water” value (egg-laying hens [3]; test zone, calcium was found in the control zone) was “no calcium was found”.
For `NCC(=O)O` [glycine], the “weights of chickens of 7-day old vs without giving glycine” value (chickens for meat) is listed as “smaller”.
